Measurements from US20250002487A1, “HETEROCYCLIC COMPOUNDS AND USES THEREOF” (Ventus Therapeutics U.S., Inc., priority 2021, published 2025).

These molecules were tested against human-cGAS (h-cGAS) (Homo sapiens, UniProt Q8N884) (assay: hcGAS Kinase-Glo Assay). Conditions: 40 nM h-cGAS, 100 μM ATP, 100 μM GTP, 25 nM dsDNA, 3 h incubation, read-out: hcGAS potency IC50.
Format: biochemical
Procedure, shortened: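 IC50 values come from a luminescence-based Kinase-Glo measurement on human cGAS. Conditions follow the Lama et al. 2019 method with minor modifications.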

Chain of human-cGAS (h-cGAS) (Q8N884 whole entry): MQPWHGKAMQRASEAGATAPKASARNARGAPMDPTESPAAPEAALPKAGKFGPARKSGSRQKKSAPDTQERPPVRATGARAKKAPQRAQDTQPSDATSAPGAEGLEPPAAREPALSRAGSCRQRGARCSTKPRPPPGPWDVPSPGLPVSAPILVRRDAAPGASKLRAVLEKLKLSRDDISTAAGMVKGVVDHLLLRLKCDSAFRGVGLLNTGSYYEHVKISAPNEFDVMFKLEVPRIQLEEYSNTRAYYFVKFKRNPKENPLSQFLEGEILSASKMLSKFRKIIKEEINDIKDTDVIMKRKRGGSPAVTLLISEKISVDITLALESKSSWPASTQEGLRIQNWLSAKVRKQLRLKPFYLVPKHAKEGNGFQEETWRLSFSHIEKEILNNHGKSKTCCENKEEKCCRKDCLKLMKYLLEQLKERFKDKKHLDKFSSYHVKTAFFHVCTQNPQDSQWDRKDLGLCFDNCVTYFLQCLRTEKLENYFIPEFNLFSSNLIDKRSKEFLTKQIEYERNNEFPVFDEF

Row | SMILES | IC50 [nM]
1 | CSc1nnc(NC(=O)c2cc(-c3cccc(F)c3F)no2)s1 [Compound 151, 3-(2,3-Difluorophenyl)-N-(5-(methylthio)-1,3,4-thiadiazol-2-yl)isoxazole-5-carboxamide] | 500 to 1000
2 | O=C(Nc1nnc(-c2ccccc2Cl)s1)c1cc(C(F)F)no1 [Compound 35, N-(5-(2-chlorophenyl)-1,3,4-thiadiazol-2-yl)-3-(difluoromethyl)isoxazole-5-carboxamide] | 500 to 1000
3 | CSc1nnc(NC(=O)c2noc(N3CCCC(C)(C)C3)n2)s1 [Compound 100, 5-(3,3-dimethylpiperidin-1-yl)-N-(5-(methylthio)-1,3,4-thiadiazol-2-yl)-1,2,4-oxadiazole-3-carboxamide] | ≥ 1000

Now from value to molecule:

Row | IC50 [nM] | SMILES
4 | 500 to 1000 | CSc1nnc(NC(=O)c2cc(-c3cccc(C)c3)no2)s1 [Compound 219, 3-(3-methylphenyl)-N-[5-(methylsulfanyl)-1,3,4-thiadiazol-2-yl]-1,2-oxazole-5-carboxamide]
5 | 100 to 500 | O=C(NO)c1cc(C(=O)Nc2nnc(-c3ccccc3Cl)s2)on1 [Compound 90, N5-(5-(2-chlorophenyl)-1,3,4-thiadiazol-2-yl)-N3-hydroxyisoxazole-3,5-dicarboxamide]
6 | < 100 | Nc1cc(C(=O)Nc2nnc(-c3ccccc3Cl)s2)on1 [Compound 4, 3-amino-N-(5-(2-chlorophenyl)-1,3,4-thiadiazol-2-yl)isoxazole-5-carboxamide]
